Reference: patent US20080207496A1, “ORGANIC COMPOUND” (priority 2003, published 2008)
Read-outs that look alike come from different tables or passages of the source.

How the values were obtained:
[1] = system: peripheral blood mononuclear cells; experiment: Intracellular calcium kinetics after PHA, flow cytometry (fluo-4/Fura-red); assay type: cell-based, human; conditions: PHA 20 μg/ml; at micromolar concentrations
Protocol: Intracellular Calcium Kinetics. Human PBMC's are resuspended in calcium-free PBS and loaded with the calcium indicator dyes Fura-red and fluo-4 for 1 hour at room temperature shielded from light. […] At the end of dye loading, cells are washed in PBS and resuspended in RPMI 1640 and placed in growth conditions. One million cells of each sample are then analyzed by a flow cytometer and the mean FL-1 and FL-3 channels recorded every 8 seconds for a total of 240 seconds. At least eight thousand events are acquired during each eight-second interval. PHA (20 μg/ml) was added to activate T cells at time 0 seconds. The ratio FL-1/FL-3 is directly related to the intracellular calcium concentration and is expressed in arbitrary units (AU).

[2] = system: IL-2 production by CD3+ T cells; conditions: at concentrations less than 0.5 mM
[3] = Phase I and II studies in patients with advanced cancer; assay type: in vivo, human; conditions: oral doses at 150 to 300 mg/day
[4] = molecular target: calcium-independent protein kinase C isoform δ (Homo sapiens, UniProt Q05655); conditions: cited from earlier work
Sequence of calcium-independent protein kinase C isoform δ (Q05655 whole entry, canonical isoform): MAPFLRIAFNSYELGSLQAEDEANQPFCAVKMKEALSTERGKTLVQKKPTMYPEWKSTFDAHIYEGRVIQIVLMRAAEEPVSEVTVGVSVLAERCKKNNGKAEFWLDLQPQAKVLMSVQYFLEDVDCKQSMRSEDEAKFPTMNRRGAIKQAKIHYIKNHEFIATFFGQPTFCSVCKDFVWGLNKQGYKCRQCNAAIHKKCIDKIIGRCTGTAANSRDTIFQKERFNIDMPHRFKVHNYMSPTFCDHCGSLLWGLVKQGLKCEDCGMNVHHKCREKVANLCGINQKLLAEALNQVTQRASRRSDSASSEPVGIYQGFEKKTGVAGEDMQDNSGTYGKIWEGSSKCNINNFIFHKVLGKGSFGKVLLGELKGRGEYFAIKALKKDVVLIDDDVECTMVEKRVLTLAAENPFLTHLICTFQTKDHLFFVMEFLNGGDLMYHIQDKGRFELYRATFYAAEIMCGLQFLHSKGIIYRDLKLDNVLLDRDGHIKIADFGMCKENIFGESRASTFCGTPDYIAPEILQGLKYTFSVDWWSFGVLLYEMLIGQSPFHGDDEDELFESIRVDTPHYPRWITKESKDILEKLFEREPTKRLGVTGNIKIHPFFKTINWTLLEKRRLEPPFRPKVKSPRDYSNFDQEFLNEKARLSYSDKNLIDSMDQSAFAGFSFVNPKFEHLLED

[5] = molecular target: conventional protein kinase C isoform γ (Homo sapiens, UniProt P05129); conditions: cited from earlier work
[6] = system: Peripheral blood mononuclear cells (PBMCs); conditions: ConA +
[7] = molecular target: conventional protein kinase C isoform α (Homo sapiens, UniProt P17252); conditions: cited from earlier work
[8] = system: IFN-gamma production by CD3+ T cells; conditions: at concentrations less than 0.5 mM
[9] = molecular target: T1, calcium-independent protein kinase C isoform ε (Homo sapiens, UniProt Q02156); conditions: cited from earlier work
T1 sequence (Q02156 1-737): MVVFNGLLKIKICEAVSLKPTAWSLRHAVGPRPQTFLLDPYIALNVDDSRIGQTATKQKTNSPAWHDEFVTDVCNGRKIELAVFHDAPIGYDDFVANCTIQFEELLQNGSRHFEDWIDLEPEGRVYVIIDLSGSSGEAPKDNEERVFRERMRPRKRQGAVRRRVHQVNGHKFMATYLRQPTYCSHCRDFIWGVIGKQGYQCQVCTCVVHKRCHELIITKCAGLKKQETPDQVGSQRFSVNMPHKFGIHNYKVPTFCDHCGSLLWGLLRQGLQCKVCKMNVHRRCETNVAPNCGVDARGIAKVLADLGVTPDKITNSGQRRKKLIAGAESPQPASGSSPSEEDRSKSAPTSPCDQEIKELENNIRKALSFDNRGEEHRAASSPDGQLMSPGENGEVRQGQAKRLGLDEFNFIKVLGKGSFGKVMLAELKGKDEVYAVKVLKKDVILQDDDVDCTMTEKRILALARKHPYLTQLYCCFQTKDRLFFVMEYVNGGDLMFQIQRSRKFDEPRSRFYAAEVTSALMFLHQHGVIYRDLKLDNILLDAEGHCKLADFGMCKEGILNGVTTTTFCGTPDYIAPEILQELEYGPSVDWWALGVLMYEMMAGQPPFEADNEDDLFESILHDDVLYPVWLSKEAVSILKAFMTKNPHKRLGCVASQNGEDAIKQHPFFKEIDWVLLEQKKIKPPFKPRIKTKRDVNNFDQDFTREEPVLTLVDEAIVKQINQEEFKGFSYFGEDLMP

[10] = molecular target: calcium-independent protein kinase C isoform η (Homo sapiens, UniProt P24723); conditions: cited from earlier work
Sequence of calcium-independent protein kinase C isoform η (P24723 whole entry, canonical isoform): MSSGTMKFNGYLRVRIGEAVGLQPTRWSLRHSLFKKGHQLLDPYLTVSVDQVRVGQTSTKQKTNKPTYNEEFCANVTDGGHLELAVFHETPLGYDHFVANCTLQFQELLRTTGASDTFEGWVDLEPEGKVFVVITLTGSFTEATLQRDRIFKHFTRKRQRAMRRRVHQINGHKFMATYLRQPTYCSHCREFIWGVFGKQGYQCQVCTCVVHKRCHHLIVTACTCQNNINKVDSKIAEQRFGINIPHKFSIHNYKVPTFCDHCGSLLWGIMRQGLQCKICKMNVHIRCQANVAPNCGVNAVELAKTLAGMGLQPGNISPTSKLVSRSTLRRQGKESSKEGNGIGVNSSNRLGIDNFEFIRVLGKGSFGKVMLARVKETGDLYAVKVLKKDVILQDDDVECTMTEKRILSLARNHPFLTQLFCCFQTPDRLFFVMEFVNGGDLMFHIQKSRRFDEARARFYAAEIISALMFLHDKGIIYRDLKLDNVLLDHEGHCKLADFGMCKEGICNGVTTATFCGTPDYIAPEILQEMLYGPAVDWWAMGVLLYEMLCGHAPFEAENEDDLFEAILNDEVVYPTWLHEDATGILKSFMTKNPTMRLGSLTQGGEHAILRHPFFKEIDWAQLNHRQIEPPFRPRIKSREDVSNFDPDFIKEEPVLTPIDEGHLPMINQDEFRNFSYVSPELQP

[11] = molecular target: conventional protein kinase C isoform β (Homo sapiens, UniProt P05771); conditions: cited from earlier work
Sequence of conventional protein kinase C isoform β (P05771 whole entry, canonical isoform): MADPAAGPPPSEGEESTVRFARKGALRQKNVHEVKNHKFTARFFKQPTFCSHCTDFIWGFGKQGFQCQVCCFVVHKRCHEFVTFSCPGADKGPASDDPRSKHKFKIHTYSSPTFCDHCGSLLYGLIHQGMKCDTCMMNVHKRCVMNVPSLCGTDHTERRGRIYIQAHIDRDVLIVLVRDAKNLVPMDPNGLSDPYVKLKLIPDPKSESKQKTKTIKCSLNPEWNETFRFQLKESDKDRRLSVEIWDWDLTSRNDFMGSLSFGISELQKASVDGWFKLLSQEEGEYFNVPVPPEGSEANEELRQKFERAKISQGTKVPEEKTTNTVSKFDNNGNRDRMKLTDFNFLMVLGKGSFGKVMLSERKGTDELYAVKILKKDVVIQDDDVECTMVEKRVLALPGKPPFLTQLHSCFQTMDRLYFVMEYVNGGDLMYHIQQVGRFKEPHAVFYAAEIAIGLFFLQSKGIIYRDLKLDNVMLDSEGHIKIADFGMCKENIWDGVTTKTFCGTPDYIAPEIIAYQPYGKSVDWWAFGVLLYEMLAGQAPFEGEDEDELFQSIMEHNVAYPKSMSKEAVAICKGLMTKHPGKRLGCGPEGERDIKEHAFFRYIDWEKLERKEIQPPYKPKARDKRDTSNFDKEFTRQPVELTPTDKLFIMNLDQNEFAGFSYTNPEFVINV

## CO[C@@H]1[C@H](N(C)C(=O)c2ccccc2)C[C@H]2O[C@]1(C)n1c3ccccc3c3c4c(c5c6ccccc6n2c5c31)C(=O)NC4 [Compound I, midostaurin]
[1]
  intracellular calcium response to PHA: blunts
[2]
  effect on IL-2 production by CD3+ T cells: slightly increases
[3]
  serum levels: micromolar range
[4]
  inhibition of protein kinase C isoform δ (inhibitory concentration): nanomolar concentrations
[5]
  inhibition of protein kinase C isoform γ (inhibitory concentration): nanomolar concentrations
[6]; C I 0.05 mM with CsA 50 ng/ml
  cpm (mean 3H-thymidine incorporation): 8472 cpm
[6]; C I 0.05 mM with CsA 100 ng/ml
  cpm (mean 3H-thymidine incorporation): 7307 cpm
[6]; C I 0.05 mM, no CsA
  cpm (mean 3H-thymidine incorporation): 11944 cpm
[6]; C I 0.1 mM with CsA 50 ng/ml
  cpm (mean 3H-thymidine incorporation): 5260 cpm
[6]; C I 0.1 mM with CsA 100 ng/ml
  cpm (mean 3H-thymidine incorporation): 3162 cpm
[6]; C I 0.1 mM, no CsA
  cpm (mean 3H-thymidine incorporation): 9005 cpm
[6]; C I 1 mM with CsA 50 ng/ml
  cpm (mean 3H-thymidine incorporation): 1082 cpm
[6]; C I 1 mM with CsA 100 ng/ml
  cpm (mean 3H-thymidine incorporation): 642 cpm
[6]; C I 1 mM, no CsA
  cpm (mean 3H-thymidine incorporation): 2556 cpm
[7]
  inhibition of protein kinase C isoform α (inhibitory concentration): nanomolar concentrations
[8]
  effect on IFN-gamma production by CD3+ T cells: slightly increases
[9]
  inhibition of protein kinase C isoform ε (inhibitory concentration): nanomolar concentrations
[10]
  inhibition of protein kinase C isoform η (inhibitory concentration): nanomolar concentrations
[11]
  inhibition of protein kinase C isoform β (inhibitory concentration): nanomolar concentrations
